Test results taken from paper PMC3391414 (Journal of Agricultural and Food Chemistry, 2011).
Entries after “also recorded” stand apart in the source; their conditions may differ. Read-outs that look alike come from different tables or passages of the source.

What was measured:
[1] = target: T1, UGT1A3 (Homo sapiens, UniProt P35503); assay: Glucuronidation by recombinant human UGT1A3
T1 sequence (P35503 29-534): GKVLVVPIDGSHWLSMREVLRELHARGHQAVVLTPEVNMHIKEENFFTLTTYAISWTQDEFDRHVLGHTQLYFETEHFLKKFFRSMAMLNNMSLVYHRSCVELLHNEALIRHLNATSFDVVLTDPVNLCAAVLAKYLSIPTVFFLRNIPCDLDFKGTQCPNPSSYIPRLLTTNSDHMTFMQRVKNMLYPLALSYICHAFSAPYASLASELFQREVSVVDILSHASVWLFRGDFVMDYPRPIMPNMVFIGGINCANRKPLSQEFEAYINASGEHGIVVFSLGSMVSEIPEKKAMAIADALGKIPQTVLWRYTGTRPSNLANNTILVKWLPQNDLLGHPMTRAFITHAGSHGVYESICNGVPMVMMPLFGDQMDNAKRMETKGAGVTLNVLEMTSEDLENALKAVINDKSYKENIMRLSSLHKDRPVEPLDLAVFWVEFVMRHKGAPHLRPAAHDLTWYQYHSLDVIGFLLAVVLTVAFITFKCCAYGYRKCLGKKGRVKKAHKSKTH

[2] = target: T2, UGT1A7 (Homo sapiens, UniProt Q9HAW7); conditions: 10 μM, pH 7.4
T2 sequence (Q9HAW7 26-530): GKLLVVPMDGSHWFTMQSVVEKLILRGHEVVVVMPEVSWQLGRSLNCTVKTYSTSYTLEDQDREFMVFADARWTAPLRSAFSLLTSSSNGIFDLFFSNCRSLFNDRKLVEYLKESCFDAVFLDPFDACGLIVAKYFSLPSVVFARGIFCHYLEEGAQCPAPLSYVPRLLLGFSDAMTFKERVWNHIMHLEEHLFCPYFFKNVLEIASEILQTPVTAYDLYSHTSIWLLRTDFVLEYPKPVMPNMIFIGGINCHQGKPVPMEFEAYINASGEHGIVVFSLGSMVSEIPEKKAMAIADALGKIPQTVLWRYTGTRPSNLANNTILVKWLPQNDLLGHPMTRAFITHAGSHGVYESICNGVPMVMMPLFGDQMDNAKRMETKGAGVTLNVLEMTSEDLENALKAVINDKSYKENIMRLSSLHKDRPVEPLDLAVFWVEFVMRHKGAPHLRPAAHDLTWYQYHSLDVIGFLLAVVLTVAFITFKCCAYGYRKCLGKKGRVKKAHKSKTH

[3] = target: T1, UGT1A3; conditions: pH 7.4

Degree of regiospecificity (major glucuronide in bracket) ([1]; UGT1A3, substrate 2.5 μM)	Degree of regiospecificity (major glucuronide in bracket) ([1]; UGT1A3, substrate 10 μM)	Hydroxyl positions glucuronidated ([1]; UGT1A3, substrate 10 μM)	Hydroxyl positions glucuronidated [2]	Degree of regiospecificity (major glucuronide in bracket) ([3]; 2.5 μM)	Hydroxyl positions glucuronidated ([3]; 10 μM)	SMILES	Degree of regiospecificity (major glucuronide in bracket) ([1]; UGT1A3, substrate 10 μM, listed as 5,7,4’THFnol)
No (3-O, 7-O)	No (3-O, 7-O)	glucuronidated 3-O, 7-O and 4’-O	–	–	–	O=c1c(O)c(-c2ccc(O)cc2)oc2cc(O)cc(O)c12 [5,7,4'THFnol, 3,5,7,4’-tetrahydroxyflavone]	no regiospecific preference between 3-O and 7-O; also recorded: did not show dominant regiospecificity for 7-O position
–	–	–	glucuronidated 7-O position only	Dominant (7-O)	glucuronidated 7-O position only	O=c1cc(-c2ccccc2)oc2cc(O)cc(O)c12 [5,7DHF, 5,7-dihydroxyflavone]	–
